Article PMC8599628 (Journal of clinical pharmacology, 2021)
Several values for one entry are separate records, joined by “and”; a condition that tells them apart may be missing. Equal entries are not always repeated. Where two headings read alike, the source gives them in different places.

Columns and labels:
CYP3A4/5 = details: cited from earlier work
CYP3A = details: 25 mg RIL daily; cited from earlier work
[1] = cited from earlier work
[2] = cited from earlier work; remark: listed apart in the source
[3] = tested on: markers of immune activation; details: 10 mg bid for 5 weeks, virologically suppressed HIV+ participants; cited from earlier work
[4] = cited from earlier work; remark: listed apart in the source

## O=C1Nc2ccc(Cl)cc2[C@@](C#CC2CC2)(C(F)(F)F)O1 [EFV, efavirenz]
CYP3A4/5; 4th week after initiation of ART with EFV
  median increase in plasma 4β-OHCC/cholesterol ratio: 257%
CYP3A4/5; 16th week after initiation of ART with EFV
  median increase in plasma 4β-OHCC/cholesterol ratio: 291%
CYP3A4/5; 48th week after initiation of ART with EFV
  median increase in plasma 4β-OHCC/cholesterol ratio: 165%

## Cc1cc(/C=C/C#N)cc(C)c1Nc1ccnc(Nc2ccc(C#N)cc2)n1 [RIL, rilpivirine]
CYP3A
  effect on CYP3A-dependent drug metabolism: did not alter

## N#CC[C@H](C1CCCC1)n1cc(-c2ncnc3[nH]ccc23)cn1 [ruxolitinib]
Model IV (separated CL/F by EFV status), participants administered ART with EFV (N = 14)
  CL/F typical value (with EFV): 22.5 L/h and 21.2 L/h
both, human, in vivo
  IIV V1 ω^2: 0.0607
  IOV F ω^2: 0.0669
both, human, in vivo, po
  IOV F ω^2: 0.0567
co-administered RIL/FTC/TAF (N = 3) or RIL/FTC/TDF (N = 1)
  ruxolitinib CL/F with co-administered RIL regimens: not increased
men, wk1
  median post hoc estimated CL/F: 16.0 L/h
men, wk4/5
  median post hoc estimated CL/F: 14.3 L/h
wk1, EFV/FTC/TDF group
  geometric mean CL/F (post hoc, Model IV): 22.3 L/h
wk1, INSTI group
  geometric mean CL/F (post hoc, Model IV): 13.8 L/h
wk1, N = 39
  mean post hoc predicted CL/F: 16.6 L/h
wk4/5, EFV/FTC/TDF group
  geometric mean CL/F (post hoc, Model IV): 20.8 L/h
wk4/5, INSTI group
  geometric mean CL/F (post hoc, Model IV): 12.7 L/h
wk4/5, N = 37
  mean post hoc predicted CL/F: 15.7 L/h
women, wk1
  median post hoc estimated CL/F: 15.2 L/h
women, wk4/5
  median post hoc estimated CL/F: 13.6 L/h
[1]; 10 mg ruxolitinib tablet with 200 mg bid ketoconazole, N = 16
  reduction of ruxolitinib CL/F: 91%
[1]; 10 mg ruxolitinib tablet with 500 mg erythromycin, N = 15
  reduction of ruxolitinib CL/F: 21%
[1]; 30 mg ruxolitinib tablet before and after 10 days of 600 mg rifampin, healthy participants N = 12
  increase in ruxolitinib CL/F: 71%
[2]
  orally absorbed: > 95%
[3]
  markers of immune activation: significantly decreased
[4]
  IIV Ka: 75%
  IIV V1: 28%
  IIV V2/F: 102%
  V2: 11.2 L
[4]; myelofibrosis patients
  IIV CL/F: 39.1%
[4]; normalized to a mean body weight of 72.9 kg
  V1: 58.6 L
